From patent publication US20230332103A1, “Methods and Compositions for Generating Human Forebrain Neural Progenitor Cells and for Maturation Thereof to Parvalbumin+ Interneurons” (Trailhead Biosystems Inc., priority 2021, published 2023)
“And” between values parts separate entries of the source, which are not always exact repeats. Equal entries are not always repeated. “Also recorded” adds a separate entry of the source. Where no end group is shown, it is not given here.

Columns and labels:
Assay type in all cases: cell-based, human
[1] = test system: MGE progenitor cells; experiment: HD-DoE 12-factor experiment for stage 4 recipe, optimized for MEF2C; settings: for impact on expression of MEF2C: dynamic profile analysis, FIG. 20
Source text: These effectors are small molecules or proteins. They are commonly used during stepwise differentiation of stem cells to specific fates. The choice of the effectors was based on current literature on neural induction in forebrain region of developing brain and differentiation of stem cells to neural progenitors.
To evaluate the effectors, experiments with at least 8 factors were designed that can assess the response of cells to 48 or more different combinations of effectors in a range of concentrations. To analyze the models, we focused on expression of genes involved in development and patterning of the forebrain interneurons maturation including LHX6 (Yuan et al. (2018) Elife, 7:e37382), DLX5 (Wang et al. (2010) J. Neuroscience 30:5334-5345), ASCL1 (Shi et al. (2016) J. Biol. Chem. 291:13560-13570). At later stages we focused on interneuron maturation genes including Parvalbumin and absence of somatostatin (Horn and Nicoll (2018) Proc. Natl. Acad. Sci. 115:589-594). The impacts of each effector on gene expression level are defined by a parameter called factor contribution that is calculated for each effector during the modeling.
To identify the recipe of stage 4 of differentiation, 48 different combinations of effectors generated using Design-of-Experiments compression through D-optimality were robotically prepared. The effector combinations were prepared in a basal media and were subsequently added to the cells, which were then allowed to differentiate. Three days later RNA extraction was performed, and gene expression was obtained using quantitative PCR analysis. The data was normalized and modeled using partial least squares regression analysis to the effector design, resulting in the generation of gene-specific models, which after model tuning for maximal predictive power, provided explanation of the effectors ability to control the expression of individual genes, combinatorically, and individually. Solutions within the tested space could then be explored to address desirability. […] Valproic Acid can inhibit histone deaceylases and increase γ-aminobutyric acid (GABA). […] GDNF is the […] Glial cell line-derived neurotrophic factor and can activate the GDNF pathway.
To find the set of factors that have the potential to optimize MEF2C in this experiment, a new assessment was done through dynamic profile analysis with focus on maximal expression of MEF2C (FIG. 20).

[2] = test system: stage 2 neural stem cells; experiment: factor criticality analysis (dynamic profile analysis) of stage 3 recipe; set-up: unit not given here; settings: other five factors present; for expression level of DLX1 when the effector is removed: 220 with all six factors; for expression level of LHX6 when the effector is removed: 240 with all six factors; for expression level of ASCL1 when the effector is removed: 1650 with all six factors
Experimental: To assess the impact of the elimination of each validated factor, dynamic profile analysis was used and compared the expression level of genes of interest in absence of each finalized factor while others are present. […] In the stage 3 recipe, each of the six finalized factors were removed while the other five factors remained present and the expression levels of ASCL1, DLX1 and LHX6 were assessed compared to the presence of all six factors. […] As expected, in the absence of IGF-1, the value of DLX1 increases to 410, however, ASCL1 and LHX6 decreased to 1390 and 220, respectively.

[3] = test system: forebrain-committed neural stem cells (stage 1 neural stem cells); experiment: HD-DoE 12-factor experiment for stage 2 recipe, optimized for NKX2-1; settings: model maximized for NKX2-1 / dynamic profile, FIG. 7 and 8
Experimental: To further guide the differentiation of forebrain-committed neural stem cells to ventral forebrain neural stem cells at stage 2, a HD-DoE experiment was performed for 3 days after termination of stage 1 treatment. At this time, we focused on maximum expression of NKX2-1 that is expressed in ventral forebrain region and minimum expression of PAX6 that is expressed in dorsal forebrain region. This 12-factor experiment included LDN193189, BMP7, PD0325901, MK2206, A8301, XAV939, CHIR99021, Purmorphamine, SANT-1, AGN193109, TTNPB and GSI-XX.

[4] = test system: stage 2 neural stem cells (cells treated with stage 1 and stage 2 media); experiment: HD-DoE experiment for stage 3 recipe, optimized for ASCL1; settings: for factor contribution on expression of ASCL1: positive, model optimized for maximum expression of ASCL1 at 1700, FIG. 9
Experimental: To further guide the cells to medial ganglionic eminence progenitor fate, an additional HD-DoE experiment was performed for 3 days on cells that were treated with stage 1 and stage 2 media for total of 6 days prior to start of the experiment. This experiment included 13 effectors, LDN193189, A8301, GNF5837, AZD3147, GSI-XX, Takinib, PD0325901, PD173074, BLU9931, IGF-1, MHY1485, Purmorphamine and Prostratin. In this model, we focused on maximum expression of genes expressed in neuronal progenitor cells in medial ganglionic eminence (MGE) region including ASCL1, LHX6 and DLX1 (Silberberg et al. (2016) Neuron 92:59-74). When the model was optimized for maximum expression of ASCL1 at 1700, A8301, GSI-XX, Purmorphamine and Takinib, which is an inhibitor of TAK1 pathway, had the highest factor contributions, 18.1, 14.1, 12.7 and 10.1 respectively. […]

[5] = test system: stage 4 neural stem cells; experiment: HD-DoE 8-factor experiment for stage 5 recipe (Prostratin, Rosiglitazone, GSI-XX, Heparin, GW0742, N2, THI0019, GDNF), optimized for PVALB; settings: for impact on expression of PVALB: dynamic profile analysis, FIG. 24; for factor contribution on expression of PVALB: positive, model optimized for maximum expression of PVALB, FIG. 23
Experimental: To investigate effect of other factors on differentiation of forebrain-committed neural stem cells to PVALB interneuron cells, an additional HD-DoE experiment was performed for 3 days on cells that were treated with stage 1 to stage 4 media for total of 12 days prior to start of the experiment. This experiment included eight effectors, Prostratin, Rosiglitazone, GSI-XX, Heparin, GW0742, N2, THI0019, and GDNF. In this model, we focused on maximum expression of PVALB gene expressed in PVALB (+) interneurons (Nahar et al. (2021) Front. Psych. 12:679960). When model was optimized for maximum expression of PVALB, Prostratin, GW0742, N2, and GDNF had the highest factor contributions, 13.56, 19.499, 15.9 and 8.2 respectively (FIG. 23).
So, they were excluded in the recipe.

[6] = test system: MGE progenitor cells; experiment: factor criticality analysis of stage 4 recipe; settings: FIG. 27
Experimental: (§1) To assess the impact of elimination of each validated factor, we again used dynamic profile analysis and compared the expression level of genes of interest in the absence of each finalized factor while others are present.
In the stage 4 recipe, each of five finalized factors were removed while the other four factors were present and expression levels of forebrain genes were assessed compared to the presence of all 5 factors. MEF2C was reported to determine the PVALB-precursors cell fate (Mayer et al. (2018) Nature 555:457-462). We optimize MEF2C expression at this stage. […] (FIG. 27).

[7] = test system: stage 4 neural stem cells; experiment: factor criticality analysis of stage 5 recipe
Experimental: as §1
In the stage 5 recipe, each of seven finalized factors were removed while other factors were kept present and expression levels of PVALB and SST were assessed compared to the presence of all seven factors. […] 2-phospho-L-ascorbic acid, BDNF, IGF-1 were included in the stage 5 recipe (FIG. 28). […] Others were also found to increase the expression of somatostatin that was SST interneuron marker. So, they are excluded from the recipe and N2 was included in the stage 5 recipe (FIG. 29). […] Sodium pyruvate was included in the stage 5 recipe (FIG. 30).

[8] = test system: cells after termination of stage 4 treatment; experiment: HD-DoE 8-factor experiment for stage 5 recipe (JQ1, Indolactam-V, Oleic acid, BDNF, IGF-1, 2-phospho-L-Ascorbic acid, Albumax, MK2206), optimized for PVALB
Source text: To further guide the differentiation of forebrain-committed neural stem cells to PVALB interneuron cells at stage 5, we performed a HD-DoE experiment for 3 days after termination of stage 4 treatment. At this time, we focused on maximum expression of PVALB that was expressed in Parvalbumin (+) interneurons and minimum expression of Somatostatin that is another type of interneurons. This 8-factor experiment included JQ1, Indolactam-V, Oleic acid, BDNF, IGF-1, 2-phospho-L-Ascorbic acid, Albumax, MK2206. […] Using dynamic profile analysis, we modified the model to achieve the maximum expression level of PVALB simultaneously and therefore 2-phospho-L-ascorbic acid, BDNF, IGF1 were included while MK2206, Albumax, and JQ1 are excluded (FIG. 22). Considering the model at different optimization settings for maximum differentiation of cells toward ventral forebrain, the recipe for stage 5 of differentiation included BDNF, IGF-1, 2-phospho-L-ascorbic acid from this HD-Doe experiment.

[9] = dynamic profile analysis, FIG. 10
[10] = positive impact, model optimized for maximal expression of MEF2C at 453, FIG. 19

Molecule	impact on expression of MEF2C [1]	factor contribution on expression of ASCL1 [4]	impact on expression of PVALB [5]	factor contribution on expression of PVALB [5]	factor contribution on expression of MEF2C [1, 10]	effect on PVALB expression [6]	effect on somatostatin expression [6]	also measured
C[C@H](NC(=O)Cc1cc(F)cc(F)c1)C(=O)N[C@@H]1C(=O)N(C)c2ccccc2-c2ccccc21 [GSI-XX]	negative effect	14.1 and 14	negative impact					factor contribution on expression of MEF2C ([1]; significant negative effect, model optimized for maximal expression of MEF2C): 11.6; expression level of DLX1 when the effector is removed [2]: 50; expression level of LHX6 when the effector is removed [2]: 140; expression level of ASCL1 when the effector is removed [2]: 1200; impact on expression of NKX2-1 [3]: increase its expression level; impact on expression of ASCL1 [4, 9]: Positive impact; impact on expression of LHX6 [4, 9]: Positive impact
Cc1cc(SCc2sc(-c3ccc(C(F)(F)F)c(F)c3)nc2C)ccc1OCC(=O)O [GW0742]				19.499				
O=[N+]([O-])c1ccc(Nc2nc(N3CCOCC3)nc(N3CCOCC3)n2)cc1 [MHY1458]		below 2			0.04	increase PVALB expression		
CC(=O)O[C@@]12C[C@@H](C)[C@@]3(O)[C@@H](C=C(CO)C[C@]4(O)C(=O)C(C)=C[C@@H]34)[C@@H]1C2(C)C [Prostratin]				13.56				
CCCC[C@@H](COC(=O)N(Cc1cccs1)Cc1cccs1)NC(=O)N[C@@H](CC(=O)OC)c1ccc2c(c1)OCO2 [THI0019]			negative impact					
CCCC(CCC)C(=O)O [Valproic Acid, Valproic acid]	positive impact				12	contribute to PVALB expression	minimal increase	
Heparin			negative impact					
IGF-1: insulin-like growth factor 1, growth factor, IGF1 pathway agonist	negative impact	7						effect on expression of somatostatin ([7]; FIG. 28): did not change; contribution to expression of PVALB (Parvalbumin) ([7]; FIG. 28-30): positive contribution; expression level of DLX1 when the effector is removed [2]: 410; expression level of LHX6 when the effector is removed [2]: 220; expression level of ASCL1 when the effector is removed [2]: 1390; impact on expression of ASCL1 [4, 9]: positive effect; impact on expression of DLX1 [4, 9]: negative impact; impact on expression of LHX6 [4, 9]: positive effect; factor contribution on expression of PVALB ([8]; important input for maximum expression of PVALB, FIG. 21): 12.8; impact on expression of PVALB ([8]; model maximized for PVALB / dynamic profile, FIG. 21 and 22): increase its expression level; also recorded: positive impact
Substance P: 11 amino acid neuropeptide, member of the tachykinin neuropeptide family (RPKPQQFFGLM; ends and bridges not checked; UniProt P20366 58-68, looked up)	positive impact				9		decrease	effect on MEF2C expression [6]: increase
GDNF: Glial cell line-derived neurotrophic factor, activates the GDNF pathway (protein, UniProt P39905 78-211, looked up) Glial cell line-derived …: SPDKQMAVLPRRERNRQAAAANPENSRGKGRRGQRGKNRGCVLTAIHLNVTDLGLGYETKEELIFRYCSGSCDAAETTYDKILKNLSRNRRLVSDKVGQACCRPIAFDDDLSFLDDNLVYHILRKHSAKRCGCI	positive impact			8.2	5	contribute to PVALB expression	minimal increase	
